Laboratory results as given in ChEMBL document CHEMBL5137024, “Discovery of novel coumarin-indole derivatives as tubulin polymerization inhibitors with potent anti-gastric cancer activities” (Eur J Med Chem, 2022).
pIC50: −log10 of the molar value. Active and inactive are the calls of the source. The calls are words filed in the database; no cut-off is given here.

Key:
Tubulin (Homo sapiens) [1] = molecular target: T1, Tubulin (Homo sapiens) (UniProt P68371+Q9H4B7+P0DPH7+P68366+Q13509+Q71U36+P04350+Q3ZCM7+P07437+P68363+Q9BQE3+Q6PEY2+Q13885+Q9BVA1+Q9BUF5); assay: Disruption of microtubule network in human MGC-803 cells assessed as irregular form of filamentous microtubule structures at 5 to 15 nM measured after 48 hrs by DAPI staining based fluorescence microscopic analysis; type: cell-based; conditions: dose 5-15 nM
HGC-27 [2] = assay: Inhibition of p38 signalling pathway in human HGC-27 cells assessed as reduction in downstream substrate HSP-27 phosphorylation at 10 to 30 nM incubated for 48 hrs; type: cell-based; conditions: dose 10-30 nM
A549 = assay: Antiproliferative activity against human A549 cells assessed as reduction in cell viability incubated for 48 hrs by MTT assay; type: functional, cell-based; conditions: A549, 48 h
MGC-803 [3] = assay: Induction of apoptosis in human MGC-803 cells assessed as decrease in XIAP level; type: functional, cell-based; conditions: dose 5-15 nM, DDE = dose-dependent effect
MGC-803 [4] = assay: Induction of apoptosis in human MGC-803 cells assessed as decrease in Bcl-2 level; type: functional, cell-based; conditions: dose 5-15 nM, DDE = dose-dependent effect
SK-N-SH = assay: Antiproliferative activity against human SK-N-SH cells assessed as reduction in cell viability incubated for 48 hrs by MTT assay; type: functional, cell-based
Tubulin (Homo sapiens) [5] = molecular target: T1, Tubulin (Homo sapiens); assay: Disruption of microtubule network in human MGC-803 cells assessed as cytoskeleton disruption at 5 to 15 nM measured after 48 hrs by DAPI staining based fluorescence microscopic analysis; type: cell-based; conditions: dose 5-15 nM
[6] = Induction of mitochondria mediated intrinsic apoptosis in human HGC-27 cells assessed as late apoptotic cells at 20 nM measured after 48 hrs by flow cytometry analysis (reference value: 93.6%); type: functional
MGC-803 [7] = assay: Induction of apoptosis in human MGC-803 cells assessed as decrease in cell density at 5 to 15 nM incubated for 48 hrs by bright field imaging analysis; type: functional, cell-based; conditions: dose 5-15 nM
MGC-803 [8] = assay: Induction of apoptosis in human MGC-803 cells assessed as increase in total apoptotic cells at 15 nM incubated for 48 hrs by annexin V FITC and propidium iodide staining based flow cytometry analysis (reference value: 3.4%); type: functional
MGC-803 [9] = assay: Downregulation of cdc2 phosphorylation at Thr14 residue in human MGC-803 cells at 5 to 15 nM incubated for 48 hrs; type: functional, cell-based; conditions: dose 5-15 nM
HGC-27 [10] = assay: Inhibition of ERK signalling pathway in human HGC-27 cells assessed as reduction in downstream substrate MSK1 phosphorylation at 10 to 30 nM incubated for 48 hrs; type: cell-based; conditions: dose 10-30 nM
SGC-7901 = assay: Antiproliferative activity against human SGC-7901 cells assessed as reduction in cell viability incubated for 48 hrs by MTT assay; type: functional, cell-based; conditions: SGC-7901, 48 h
HGC-27 [11] = assay: Antiproliferative activity against human HGC-27 cells assessed as reduction in cell viability incubated for 12 to 48 hrs by MTT assay; type: functional, cell-based; conditions: dose 15-30 nM, time 12-48 hrs, DDE = dose-dependent effect
Mus musculus [12] = assay: Downregulation of JNK phosphorylation in tumor tissue of BALB/c nude mouse xenografted with human MGC-803 cells at 15 to 30 mg/kg, ip administered once daily for 21 days by Western blotting analysis; type: functional, organism-based; conditions: dose 15-30 mg/kg, time 21.0 day
HGC-27 [13] = assay: Induction of apoptosis in human HGC-27 cells assessed as decrease in cIAP-1 level; type: functional, cell-based; conditions: dose 10-30 nM, DDE = dose-dependent effect
HGC-27 [14] = assay: Upregulation of phosphorylated Histone H3 expression in human HGC-27 cells at 10 to 30 nM incubated for 48 hrs; type: functional, cell-based; conditions: dose 10-30 nM
HGC-27 [15] = assay: Induction of apoptosis in human HGC-27 cells assessed as increase in total apoptotic cells at 30 nM incubated for 48 hrs by annexin V FITC and propidium iodide staining based flow cytometry analysis (reference value: 7.2%); type: functional
MGC-803 [16] = assay: Induction of apoptosis in human MGC-803 cells assessed as upregulation of cleavage caspase 8 level; type: functional, cell-based; conditions: dose 5-15 nM, DDE = dose-dependent effect
MGC-803 [17] = assay: Induction of cell cycle arrest in human MGC-803 cells assessed as accumulation of cells at G2/M phase at 15 nM incubated for 48 hrs by propidium iodide staining based flow cytometry analysis (reference value: 24%); type: functional
MGC-803 [18] = assay: Inhibition of ERK signalling pathway in human MGC-803 cells assessed as downregulation of c-Raf phosphorylation at 5 to 15 nM incubated for 48 hrs; type: cell-based; conditions: dose 5-15 nM
MDA-MB-231 = assay: Antiproliferative activity against human MDA-MB-231 cells assessed as reduction in cell viability incubated for 48 hrs by MTT assay; type: functional, cell-based; conditions: MDA-MB-231, 48 h
[19] = molecular target: c-Jun N-terminal kinase, JNK (Homo sapiens) (UniProt P45983+P53779+P45984); assay: Inhibition of JNK signalling pathway in human HGC-27 cells assessed as reduction in JNK phosphorylation at 10 to 30 nM incubated for 48 hrs; type: cell-based; conditions: dose 10-30 nM
ECa-109 cell line = assay: Antiproliferative activity against human EC109 cells assessed as reduction in cell viability incubated for 48 hrs by MTT assay; type: functional, cell-based; conditions: ECa-109, 48 h
MGC-803 [20] = assay: Inhibition of p38 signalling pathway in human MGC-803 cells assessed as reduction in p38 phosphorylation at 5 to 15 nM incubated for 48 hrs; type: cell-based; conditions: dose 5-15 nM
MGC-803 [21] = assay: Inhibition of p38 signalling pathway in human MGC-803 cells assessed as reduction in downstream substrate HSP-27 phosphorylation at 5 to 15 nM incubated for 48 hrs; type: cell-based; conditions: dose 5-15 nM
MGC-803 [22] = assay: Induction of apoptosis in human MGC-803 cells assessed as upregulation of DR5 level; type: functional, cell-based; conditions: dose 5-15 nM, DDE = dose-dependent effect
MCF7 = assay: Antiproliferative activity against human MCF7 cells assessed as reduction in cell viability incubated for 48 hrs by MTT assay; type: functional, cell-based; conditions: MCF7, 48 h
Mus musculus [23] = assay: Upregulation of PARP expression in tumor tissue of BALB/c nude mouse xenografted with human MGC-803 cells at 15 to 30 mg/kg, ip administered once daily for 21 days by Western blotting analysis; type: functional, organism-based; conditions: dose 15-30 mg/kg, time 21.0 day
MGC-803 [24] = assay: Downregulation of MMP-9 expression in human MGC-803 cells incubated for 48 hrs; type: functional, cell-based; conditions: dose 5-15 nM, DDE = dose-dependent effect
HGC-27 [25] = assay: Induction of DNA damage in human HGC-27 cells by comet assay; type: functional, cell-based; conditions: dose 10-30 nM, DDE = dose-dependent effect
[26] = Toxicity in BALB/c nude mouse xenografted with human MGC-803 cells assessed as pathological changes in lung at 15 to 30 mg/kg, ip administered once daily for 21 days by Hematoxyin-eosin staining based analysis; type: organism-based; conditions: in vivo, 504 h, dose 15-30 mg/kg, time 21 day
HGC-27 [27] = assay: Antiinvasive activity against human HGC-27 cells assessed as reduction in number of cells in membrane incubated for 48 hrs by trans well assay; type: functional, cell-based; conditions: dose 10-30 nM, DDE = dose-dependent effect
MGC-803 [28] = assay: Inhibition of ERK signalling pathway in human MGC-803 cells assessed as reduction in downstream substrate p90RSK phosphorylation at 5 to 15 nM incubated for 48 hrs; type: cell-based; conditions: dose 5-15 nM
HGC-27 [29] = assay: Induction of apoptosis in human HGC-27 cells assessed as nuclear concentration at 10 to 30 nM incubated for 48 hrs by DAPI staining based analysis; type: functional, cell-based; conditions: dose 10-30 nM
HGC-27 [30] = assay: Downregulation of vimentin expression in human HGC-27 cells incubated for 48 hrs; type: functional, cell-based; conditions: dose 10-30 nM, DDE = dose-dependent effect

## CN(c1ccc2c(ccn2C)c1)c1cc(=O)oc2ccccc12
Tubulin (Homo sapiens) [1]
  Activity: Active
HGC-27 [2]
  inhibition: Active
A549
  pIC50: 7.23
MGC-803 [3]
  Activity: Dde
MGC-803 [4]
  Activity: Dde
SK-N-SH
  pIC50: 7.22
Tubulin (Homo sapiens) [5]
  Activity: Active
[6]
  Activity: 78.3%
MGC-803 [7]
  Activity: Active
MGC-803 [8]
  Activity: 40.2%
MGC-803 [9]
  Activity: Active
HGC-27 [10]
  inhibition: Active
SGC-7901
  pIC50: 7.28
HGC-27 [11]
  Activity: Dde
Mus musculus [12]
  Activity: Active
HGC-27 [13]
  Activity: Dde
HGC-27 [14]
  Activity: Active
HGC-27 [15]
  Activity: 47.3%
MGC-803 [16]
  Activity: Dde
MGC-803 [17]
  Activity: 53%
MGC-803 [18]
  inhibition: Active
MDA-MB-231
  pIC50: 7.10
[19]
  inhibition: Active
ECa-109 cell line
  pIC50: 7.47
MGC-803 [20]
  inhibition: Active
MGC-803 [21]
  inhibition: Active
MGC-803 [22]
  Activity: Dde
MCF7
  pIC50: 6.36
Mus musculus [23]
  Activity: Active
MGC-803 [24]
  Activity: Dde
HGC-27 [25]
  Activity: Dde
[26]
  Activity: Non-Toxic
HGC-27 [27]
  Activity: Dde
MGC-803 [28]
  inhibition: Active
HGC-27 [29]
  Activity: Active
HGC-27 [30]
  Activity: Dde
